Test results from paper PMC6033896, “Discovery of Mcl-1 inhibitors from integrated high throughput and virtual screening” (Scientific Reports, 2018).
Several values for one entry are separate records, joined by “and”; a condition that tells them apart may be missing. Equal entries are not always repeated. Entries after “also recorded” stand apart in the source; their conditions may differ.

Experiments:
endogenous Mcl-1 = target: T1, endogenous Mcl-1 (Homo sapiens, UniProt Q07820); test: Biotin-streptavidin pulldown with BL-Noxa, 2LMP whole cell lysate; assay type: binding
T1 construct: endogenous in cells; host or cells: 2LMP (subclone of MDA-MB-231), whole cell lysate
Procedure: 2LMP cells, a subclone of MDA-MB-231, were harvested (~15 × 10^6) and lysed via sonication with CHAPS buffer (10 mM HEPES pH 7.4, 2.5 mM EDTA, 150 mM NaCl, 1% (w/v) CHAPS, pH 7.4). […] Protein-peptide complexes were pulled down with agarose beads for 2 hrs. Beads were washed with CHAPS buffer and Mcl-1 protein was eluted by boiling in SDS-PAGE loading dye. Samples were analysed by western blotting with the Mcl-1 antibody (Thermo Scientific #MS-681-P1).

Mcl-1 protein = target: T2, Mcl-1 protein (Homo sapiens, UniProt Q07820); test: FP-based competitive binding assay with fluorescent labelled Bid BH3 peptide; settings: for Ki: calculated from FP IC50; for IC50: competition with fluorescent Bid probe 2 nM, 20 nM Mcl-1 for purchased compounds, 10 nM for synthesized library
T2 construct: human Mcl-1 (residues 171–323); His tag (pHis-TEV vector) (N, cleaved yes); made in house; host or cells: E. coli BL21 (DE3)
Procedure: FP-based binding assays were developed and optimized to determine the binding affinities of inhibitors to the recombinant Mcl-1, Bcl-2, Bcl-xL, and Bfl-1, proteins. […] The fluorescent Bid probe was fixed at 2 nM for all assays, except for Bfl-1, where 1 nM was used. 5 μL of the tested compound in DMSO and 120 μL of protein/probe complex in the assay buffer were added to assay plates (Corning #3792), incubated at room temperature for 3 h, and the polarization values (mP) were measured at an excitation wavelength of 485 nm and an emission wavelength of 530 nm using the plate reader Synergy H1 Hybrid, BioTek. IC50 values were determined by nonlinear regression fitting of the competition curves (GraphPad Prism 6.0 Software). The Ki values were calculated as described previously.
1. List of compounds purchased from vendors
Compound s 5, 6, 7, 8 and S3, S4, S5, S6 S7, S8, S9, S10, S17 were purchased from […]
Compound s 9, 10, 11 and S11, S12, S13 were purchased from I nterbioscreen […]
His-tagged proteins containing human Mcl-1 (residues 171–323), the isoform 2 construct of the human Bcl-2 [Bcl2-2 construct for protein production starts with the Bcl2 sequence of 1-34 a a, followed by the Bcl-xL seq uence of 35-50 aa, and ends with the Bcl-2 sequenc e of 92-202aa.], Bcl-xL (Human Bcl-xL protein, which has an internal deletion for the 45 -85 amino acid residues and a C -terminal truncation for the amino acid residues 212-233), and Bf l-1 (residues 1-151), were expres sed from the pHis -TEV vector (a modified pET vector) in E. coli BL21 (DE3) cells. Cells were grown at 37 °C in 2×YT containing antibiotics to an OD600 density of 1.5, 1 and 0.8 for Mcl-1, Bcl-xL and Bcl-2 respectively. Protein expression wa s induced by 0 .4 mM IPTG at 20 °C overnight for all proteins except for Bf l-1 which was e xpressed at 3 7 °C for four hours . Cells were lysed in 20 mM HEPES pH 7.5, 200 mM NaCl, 0.1% βME with Leupeptin/Aprotinin (Mcl-1), 25mM Tris pH 8.5, 200mM NaCl (Bcl-2), 50mM Tris pH 7.5, 200 mM NaCl (Bcl-xL) and 50 mM Tris pH 8, 500 mM NaCl, 0. 1% βME with Leupeptin/Aprotinin (Bf l-1). All […]
proteins were purified from the soluble fraction using Ni-NTA resin (QIAGEN), following the manufacturer’s instructions. For purification of TEV-cleaved protein, the amino-terminal His tag was cleaved by incubation with TEV protease and the protein was further purified by anion exchange (Source Q) and gel filtration chromatography (Superdex 75, Amersham Biosciences) in 20mM HEPES pH 7.0, 50 mM NaCl (Mcl-1), […]
NaCl, 0.1% βME (Bcl-xL) and 25 mM Tris pH 7.5, 150 mM NaCl, 25% Glycerol, 0.1% βME ( Bf l-1). His-tagged Mcl-1 protein was used for TR-FRET assay and HSQC-NMR.
His-TEV cleaved Mcl-1, Bcl-2, Bcl-xL, and Bf l-1 were used in fluorescent polarization and surface plasmon resonance binding assays.
Mutant Mcl-1 protein wa s prepared by the QuikChange site -directed mutagenesi s method (Stratagene) , where Arg263 was mutated to Ala. The R263A expression pla smid was transformed into Rosetta2 DE3 cells and purified by the same method as the wildtype protein. Cultures were grown to an OD 600 of 1. 5 at 37 °C in Terrific Broth, induced with 0. 4 mM IPTG, and express ed overnight at 20 °C. The follow-up purification was performed the same way as was for Mcl-1 wild-type recombinant

wild-type MEFs = test: MEF cell death, propidium iodide flow cytometry; assay type: cell-based, mouse
Procedure: (§1) MEF cells, including wild-type, Bax/Bak double knockout, Bax−/− single knockout, and Bak−/− single knockout were tested and characterized (Supplementary Fig. S3). The cells were cultured in DMEM (Life Technologies), supplemented with 10% fetal bovine serum (FBS) (Thermo Scientific HyClone) and 1% Penicillin/streptomycin solution (Life Technologies). The retrovirally transduced lymphoma cells isolated from Eμ-myc transgenic mice were provided by Ricky W. Johnstone at the University of Melbourne, Melbourne, Australia and cultured as previously described[37],[65].
(§2) MEFs were seeded in 24-well plates at 0.5 × 10^5 cells/well, left to adhere for 5 hours and then treated for 15 hours with increasing concentrations of the compounds. The cells were harvested, washed with phosphate-buffered saline (PBS) and stained with 0.025 mg/ml propidium iodide (MP Biomedicals). The percentage of the propidium iodide positive population was determined by flow cytometry and calculated using WinList 3.0.

[1] = tested on: Bax/Bak double knockout (DKO) MEFs; test: MEF cell death, propidium iodide flow cytometry; assay type: cell-based, mouse
Procedure: as §1, §2

[2] = tested on: Eµ-myc lymphoma cells overexpressing Mcl-1; test: Eµ-myc lymphoma cell viability, flow cytometry; assay type: cell-based, mice; settings: increasing concentrations, 15 h
Procedure: as §1
(§3) The Mcl-1, Bcl-2, and Bcl-xL retroviral transduced lymphoma Eμ-myc cells were seeded in 12-well plates at 0.5 × 10^6 cells/well. […] The cells were harvested and stained with violet LIVE/DEAD Fixable Dead Cell Stain Kit (Invitrogen) according to manufacturer’s protocol. The percentage of fluorescent positive cells was determined by flow cytometry and calculated using WinList 3.0.

[3] = tested on: Eµ-myc lymphoma cells overexpressing Bcl-2; test: Eµ-myc lymphoma cell viability, flow cytometry; assay type: cell-based, mice; settings: increasing concentrations
Procedure: as §1, §3

[4] = increasing concentrations, 15 h
[5] = 100 µM of hits (15: 10, 20, 30 µM), 15-hour treatment, propidium iodide

T2 sequence (Q07820 171-323): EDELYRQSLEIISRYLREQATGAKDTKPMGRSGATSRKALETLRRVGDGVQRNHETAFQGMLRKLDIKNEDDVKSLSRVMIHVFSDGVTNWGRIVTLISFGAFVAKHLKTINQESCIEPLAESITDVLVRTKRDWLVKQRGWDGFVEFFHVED
T1 sequence (Q07820 whole entry): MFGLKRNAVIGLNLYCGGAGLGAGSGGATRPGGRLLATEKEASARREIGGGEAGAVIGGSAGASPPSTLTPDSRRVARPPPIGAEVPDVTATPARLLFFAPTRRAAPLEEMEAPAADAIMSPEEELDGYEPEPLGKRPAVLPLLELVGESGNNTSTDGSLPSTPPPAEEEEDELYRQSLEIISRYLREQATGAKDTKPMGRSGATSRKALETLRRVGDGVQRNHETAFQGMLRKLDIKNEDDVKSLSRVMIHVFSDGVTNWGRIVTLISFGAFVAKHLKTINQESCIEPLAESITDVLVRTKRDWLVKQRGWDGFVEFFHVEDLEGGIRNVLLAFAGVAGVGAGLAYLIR

SMILES | disruption of BL-Noxa binding to endogenous Mcl-1 (endogenous Mcl-1) | Ki (Mcl-1 protein) | IC50 (Mcl-1 protein) | cell death in wild-type MEFs (wild-type MEFs; [4]) | cell death in Bax/Bak DKO MEFs [1, 4] | killing of Eµ-myc cells overexpressing Mcl-1 [2] | effect on Eµ-myc cells overexpressing Bcl-2 [3] | cell death induction in wild-type MEFs, screening of hits (wild-type MEFs; [5]) | cell death induction in Bax/Bak DKO MEFs, screening of hits [1, 5]
O=C(CSc1nnc(-c2ccco2)c(-c2ccco2)n1)Nc1cccc(C(F)(F)F)c1 [Compound 39] | dose-dependent blocking | 1.2 ± 0.1 µM | 5.1 ± 0.5 µM | induces Bax/Bak-dependent cell death; also recorded: dose-dependent increase in cell death | rescued the cells | selective killing; also recorded: selectively kills Mcl-1 dependent cell lines | selectivity; also recorded: minimal effect |  | 
c1ccc(CCCCSc2nnc(-c3ccco3)c(-c3ccco3)n2)cc1 [Compound 44] | dose-dependent blocking | 0.3 ± 0.1 µM | 1.4 ± 0.2 µM |  |  | killing | selectivity |  | 
O=C(CSc1nnc(-c2ccco2)c(-c2ccco2)n1)Nc1ccccc1 [Compound 19] |  | 3.2 ± 0.3 µM | 13 µM and 13.8 µM |  |  |  |  | inducing cell death | without significant cell death induction
